Assay results as given in ChEMBL document CHEMBL5053497, “Azaphilones from an Endophytic Penicillium sp. Prevent Neuronal Cell Death via Inhibition of MAPKs and Reduction of Bax/Bcl-2 Ratio” (2021).
Calls of active or inactive are those of the source. No cut-off for these calls is given here.

Legend:
[1] = test system: HT-22; assay: Neuroprotective activity in mouse HT-22 cells assessed as inhibition of glutamate-induced nuclear condensation at 25 uM incubated for 12 hrs in presence of glutamate by Hoechst 33342 staining based fluorescence microscopic analysis; format: functional, cell-based
[2] = test system: HT-22; assay: Neuroprotective activity against glutamate-induced cytotoxicity in mouse HT-22 cells assessed as cell viability at 50 to 100 uM incubated for 24 hrs in presence of glutamate by EZ-CyTox reagent based analysis; format: functional; settings: dose 50-100 µM
[3] = test system: HT-22; assay: Neuroprotective activity in mouse HT-22 cells assessed as reduction in glutamate-induced intracellular Ca2+ level at 25 uM incubated for 8 hrs in presence of glutamate by Fluo-4AM staining based microscopic imaging analysis; format: functional, cell-based
[4] = test system: HT-22; assay: Neuroprotective activity against glutamate-induced cytotoxicity in mouse HT-22 cells assessed as cell viability at 25 to 50 uM incubated for 24 hrs in presence of glutamate by EZ-CyTox reagent based analysis (reference value: 50 %); format: functional; settings: dose 25-50 µM
[5] = test system: HT-22; assay: Neuroprotective activity against glutamate-induced cytotoxicity in mouse HT-22 cells assessed as cell viability at 25 uM incubated for 24 hrs in presence of glutamate by EZ-CyTox reagent based analysis relative to control; format: functional; settings: read-out: Activity
[6] = test system: HT-22; assay: Neuroprotective activity in mouse HT-22 cells assessed as reduction in glutamate-induced intracellular Ca2+ level at 10 to 20 uM incubated for 8 hrs in presence of glutamate by Fluo-4AM staining based microscopic imaging analysis; format: functional, cell-based; settings: dose 10-20 µM
[7] = test system: HT-22; assay: Neuroprotective activity in mouse HT-22 cells assessed as reduction in glutamate-induced intracellular Ca2+ level at 50 uM incubated for 8 hrs in presence of glutamate by Fluo-4AM staining based microscopic imaging analysis; format: functional, cell-based
[8] = test system: HT-22; assay: Inhibition of glutamate-induced MAPK activation in mouse HT-22 cells assessed as reduction in p38 phosphorylation at 10 to 20 uM incubated for 11 hrs in presence of glutamate by Western blot analysis; format: cell-based; settings: dose 10-20 µM
[9] = test system: HT-22; assay: Inhibition of glutamate-induced MAPK activation in mouse HT-22 cells assessed as reduction in ERK phosphorylation at 10 to 20 uM incubated for 11 hrs in presence of glutamate by Western blot analysis; format: cell-based; settings: dose 10-20 µM
[10] = test system: HT-22; assay: Neuroprotective activity against glutamate-induced cytotoxicity in mouse HT-22 cells assessed as cell viability at 12.5 uM incubated for 24 hrs in presence of glutamate by EZ-CyTox reagent based analysis; format: functional
[11] = test system: HT-22; assay: Inhibition of glutamate-induced MAPK activation in mouse HT-22 cells assessed as reduction in JNK phosphorylation at 10 to 20 uM incubated for 11 hrs in presence of glutamate by Western blot analysis; format: cell-based; settings: dose 10-20 µM
[12] = test system: HT-22; assay: Neuroprotective activity against glutamate-induced cell death in mouse HT-22 cells assessed as reduction in Bax/Bcl2 ratio at 10 to 20 uM incubated for 11 hrs in presence of glutamate by Western blot analysis; format: functional, cell-based; settings: dose 10-20 µM
[13] = test system: HT-22; assay: Neuroprotective activity in mouse HT-22 cells assessed as inhibition of glutamate-induced nuclear condensation at 10 to 20 uM incubated for 12 hrs in presence of glutamate by Hoechst 33342 staining based fluorescence microscopic analysis; format: functional, cell-based; settings: dose 10-20 µM

Structure (SMILES)	inhibition [1]	Activity [3]	Activity [4]	viability at 25 µM [5]	other results
CC[C@H](C)/C=C(C)/C=C/C1=CC2=CC(=O)[C@](C)(O)[C@H](O)[C@H]2CO1	inactive	inactive	–	–	Activity [2]: Active
CC[C@@H](/C=C(C)/C=C/C1=CC2=CC(=O)[C@](C)(O)[C@H](O)[C@H]2CO1)CO	inactive	inactive	80%	–	–
CC[C@H](C)/C=C(C)/C=C/C1=CC2=C(Cl)C(=O)[C@](C)(OC(C)=O)C(=O)C2=CN1CCO	Active	–	80%	100%	Activity [6]: Active
CC[C@H](C)/C=C(C)/C=C/C1=CC2=C(Cl)C(=O)[C@](C)(OC)C(=O)C2=CN1CCO	Active	–	80%	100%	Activity [7]: Active
CC(/C=C/C1=CC2=C(Cl)C(=O)[C@](C)(O)[C@H](O)[C@@H]2CO1)=C\[C@@H](C)CCO	inactive	inactive	80%	–	–
CC[C@H](C)/C=C(C)/C=C/C1=CC2=C(Cl)C(=O)[C@](C)(OC(C)=O)C(=O)C2=CN1 [SCLEROTIORAMINE]	–	–	–	100%	inhibition [8]: Active; inhibition [9]: Active; Activity [10]: Active; Activity [6]: Active; inhibition [11]: Active; Activity [12]: Active; inhibition [13]: Active
CC[C@H](C)/C=C(C)/C=C/C1=CC2=C(Cl)C(=O)[C@](C)(O)[C@H](O)C2=CO1	–	–	–	–	Activity [2]: Active
